Assay results taken from PubChem BioAssay AID248 (DTP/NCI, 2004).
Several values for one entry are separate records, joined by “and”; a condition that tells them apart may be missing. Equal values may be shown once. Toxic doses and inconclusive results are not listed.

Tested on: L1210 leukemia ip in BDF1 mice, survival T/C
Experiment: NCI In Vivo Anticancer Drug Screen. Data for tumor model L1210 Leukemia (intraperitoneal) in B6D2F1 (BDF1) mice
Conditions: endpoint: mean survival time, higher = longer survival
Procedure, shortened: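 Tumor was transplanted into mice, which were then dosed with test compound or vehicle alone. Survival was recorded for each group, and the treated figure was expressed relative to the control figure.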

[1] = dose: 100.0 mg/kg/injection, schedule: Q01DX001 (ip), vehicle: carboxymethylcellulose (CMC)
[2] = dose: 200.0 mg/kg/injection, schedule: Q01DX001 (ip), vehicle: carboxymethylcellulose (CMC)
[3] = dose: 400.0 mg/kg/injection, schedule: Q01DX001 (ip), vehicle: carboxymethylcellulose (CMC)
[4] = dose: 100.0 mg/kg/injection, schedule: Q01DX009 (ip), vehicle: Klucel (hydroxypropylcellulose) (HPC)
[5] = dose: 100.0 mg/kg/injection, schedule: Q04DX003 (ip), vehicle: Klucel (hydroxypropylcellulose) (HPC)
[6] = dose: 200.0 mg/kg/injection, schedule: Q01DX009 (ip), vehicle: Klucel (hydroxypropylcellulose) (HPC)
[7] = dose: 200.0 mg/kg/injection, schedule: Q04DX003 (ip), vehicle: Klucel (hydroxypropylcellulose) (HPC)
[8] = dose: 400.0 mg/kg/injection, schedule: Q01DX009 (ip), vehicle: Klucel (hydroxypropylcellulose) (HPC)
[9] = dose: 100.0 mg/kg/injection, schedule: Q01DX009 (ip), vehicle: saline with Tween-80
[10] = dose: 200.0 mg/kg/injection, schedule: Q01DX009 (ip), vehicle: saline with Tween-80
[11] = dose: 400.0 mg/kg/injection, schedule: Q01DX009 (ip), vehicle: saline with Tween-80
[12] = dose: 100.0 mg/kg/injection, schedule: Q01DX001 (ip), vehicle: saline
[13] = dose: 200.0 mg/kg/injection, schedule: Q01DX001 (ip), vehicle: saline
[14] = dose: 25.0 mg/kg/injection, schedule: Q01DX009 (ip), vehicle: saline
[15] = dose: 25.0 mg/kg/injection, schedule: Q04DX003 (ip), vehicle: saline

CCOC(=O)/C(O)=C\c1cc(Cl)nnc1Cl
T/C (dose: 162.5 mg/kg/injection, schedule: Q04DX002 (ip), vehicle: Klucel (hydroxypropylcellulose) (HPC)): 100 % of control
T/C (dose: 325.0 mg/kg/injection, schedule: Q04DX002 (ip), vehicle: Klucel (hydroxypropylcellulose) (HPC)): 95 % of control

O=C(O)C12CC=CCC1(C(=O)O)CC=CC2 (configuration not stated)
T/C (dose: 50.0 mg/kg/injection, schedule: Q01DX001 (ip), vehicle: carboxymethylcellulose (CMC)): 96 % of control
T/C [1]: 98 % of control
T/C [2]: 102 % of control
T/C [3]: 98 % of control

CCCCCCCCCCCCNC(=O)CCl
T/C [4]: 87 % of control
T/C [5]: 91 % of control
T/C [6]: 90 % of control
T/C [7]: 89 % of control
T/C [8]: 91 % of control

O=C1c2cccc3cccc(c23)C(=O)N1NCCO
T/C [4]: 93 % of control
T/C [6]: 89 % of control

COC(=O)/C=C(\C)Oc1cc(Cl)c(Cl)cc1Cl
T/C [9]: 94 % of control
T/C [10]: 97 % of control
T/C [11]: 97 % of control

O=NN(CCCl)C(=O)Nc1ccc2oc(=O)c3ccccc3c2c1
T/C (dose: 1.25 mg/kg/injection, schedule: Q01DX001 (ip), vehicle: Klucel (hydroxypropylcellulose) (HPC)): 123 % of control
T/C (dose: 2.5 mg/kg/injection, schedule: Q01DX001 (ip), vehicle: Klucel (hydroxypropylcellulose) (HPC)): 105 % of control
T/C (dose: 5.0 mg/kg/injection, schedule: Q01DX001 (ip), vehicle: Klucel (hydroxypropylcellulose) (HPC)): 112 % of control
T/C (dose: 10.0 mg/kg/injection, schedule: Q01DX001 (ip), vehicle: carboxymethylcellulose (CMC)): 150 % of control
T/C (dose: 35.0 mg/kg/injection, schedule: Q01DX001 (ip), vehicle: carboxymethylcellulose (CMC)): 164 % of control
T/C (dose: 150.0 mg/kg/injection, schedule: Q01DX001 (ip), vehicle: carboxymethylcellulose (CMC)): 120 % of control
T/C (dose: 177.0 mg/kg/injection, schedule: Q01DX009 (ip), vehicle: carboxymethylcellulose (CMC)): 101 % of control
T/C (dose: 266.0 mg/kg/injection, schedule: Q01DX009 (ip), vehicle: carboxymethylcellulose (CMC)): 95 % of control
T/C (dose: 400.0 mg/kg/injection, schedule: Q01DX009 (ip), vehicle: carboxymethylcellulose (CMC)): 92 % of control
T/C (dose: 600.0 mg/kg/injection, schedule: Q01DX001 (ip), vehicle: carboxymethylcellulose (CMC)): 152 % of control
T/C (dose: 600.0 mg/kg/injection, schedule: Q01DX009 (ip), vehicle: carboxymethylcellulose (CMC)): 87 % of control

O=C1CCN(Cc2ccco2)C(=S)N1
T/C (dose: 25.0 mg/kg/injection, schedule: Q01DX Z (ip), vehicle: methylcellulose (MC)): 101 % of control
T/C (dose: 50.0 mg/kg/injection, schedule: Q01DX Z (ip), vehicle: methylcellulose (MC)): 97 % of control

O=C(O)c1ccccc1CBr
T/C (dose: 100.0 mg/kg/injection, schedule: Q01DX005 (ip), vehicle: Klucel (hydroxypropylcellulose) (HPC)): 97 % of control
T/C [4]: 97 % of control
T/C (dose: 100.0 mg/kg/injection, schedule: Q04DX002 (ip), vehicle: Klucel (hydroxypropylcellulose) (HPC)): 96 % of control
T/C [5]: 93 % of control
T/C (dose: 200.0 mg/kg/injection, schedule: Q01DX005 (ip), vehicle: Klucel (hydroxypropylcellulose) (HPC)): 105 % of control
T/C [6]: 97 % of control
T/C (dose: 200.0 mg/kg/injection, schedule: Q04DX002 (ip), vehicle: Klucel (hydroxypropylcellulose) (HPC)): 100 % of control
T/C [7]: 93 % of control
T/C (dose: 400.0 mg/kg/injection, schedule: Q01DX005 (ip), vehicle: Klucel (hydroxypropylcellulose) (HPC)): 101 % of control
T/C [8]: 97 % of control
T/C (dose: 400.0 mg/kg/injection, schedule: Q04DX002 (ip), vehicle: Klucel (hydroxypropylcellulose) (HPC)): 93 % of control
T/C (dose: 400.0 mg/kg/injection, schedule: Q04DX003 (ip), vehicle: Klucel (hydroxypropylcellulose) (HPC)): 105 % of control

CS(=O)(=O)OCC1(c2ccccc2)CCCCC1
T/C (dose: 100.0 mg/kg/injection, schedule: Q01DX001 (sc), vehicle: olive oil, sesame oil, peanut oil): 101 % of control
T/C (dose: 200.0 mg/kg/injection, schedule: Q01DX001 (sc), vehicle: olive oil, sesame oil, peanut oil): 103 % of control
T/C (dose: 400.0 mg/kg/injection, schedule: Q01DX001 (sc), vehicle: olive oil, sesame oil, peanut oil): 108 % of control

NC1=Nc2cccc3cccc(c23)N1
T/C (dose: 12.5 mg/kg/injection, schedule: Q01DX009 (ip), vehicle: Klucel (hydroxypropylcellulose) (HPC)): 95 % of control
T/C (dose: 12.5 mg/kg/injection, schedule: Q04DX003 (ip), vehicle: Klucel (hydroxypropylcellulose) (HPC)): 95 % of control
T/C (dose: 25.0 mg/kg/injection, schedule: Q01DX009 (ip), vehicle: Klucel (hydroxypropylcellulose) (HPC)): 93 % of control
T/C (dose: 25.0 mg/kg/injection, schedule: Q04DX003 (ip), vehicle: Klucel (hydroxypropylcellulose) (HPC)): 92 % of control
T/C (dose: 50.0 mg/kg/injection, schedule: Q01DX009 (ip), vehicle: Klucel (hydroxypropylcellulose) (HPC)): 90 % of control
T/C (dose: 50.0 mg/kg/injection, schedule: Q04DX003 (ip), vehicle: Klucel (hydroxypropylcellulose) (HPC)): 98 % of control

CCCCCCCCCCCCCCSCCO
T/C (dose: 100.0 mg/kg/injection, schedule: Q01DX009 (ip), vehicle: carboxymethylcellulose (CMC)): 103 % of control
T/C (dose: 200.0 mg/kg/injection, schedule: Q01DX009 (ip), vehicle: carboxymethylcellulose (CMC)): 102 % of control

COc1ccc(/C=C(\SS/C(=C/c2ccc(OC)cc2)C(=O)O)C(=O)O)cc1
T/C [12]: 89 % of control
T/C [13]: 94 % of control

Cc1ccc(S(=O)(=O)OCCN(CCOS(=O)(=O)c2ccc(C)cc2)c2ccccc2)cc1
T/C (dose: 7.5 mg/kg/injection, schedule: Q01DX015 (ip), vehicle: carboxymethylcellulose (CMC)): 109 % of control
T/C (dose: 50.0 mg/kg/injection, schedule: Q01DX001 (ip), vehicle: saline): 117 % of control
T/C (dose: 60.0 mg/kg/injection, schedule: Q01DX015 (ip), vehicle: carboxymethylcellulose (CMC)): 122 % of control
T/C [12]: 115 % of control

COc1ccc2cc(Br)ccc2c1
T/C [9]: 107 % of control
T/C [10]: 102 % of control
T/C [11]: 102 % of control

O=C(CF)NC1C(O)OC(CO)C(O)C1O (configuration not stated)
T/C [12]: 107 % of control
T/C [13]: 112 % of control

Fc1c(F)c(F)c(-c2ccccc2)c(F)c1F
T/C (dose: 25.6 mg/kg/injection, schedule: Q04DX002 (ip), vehicle: saline with Tween-80): 92 % of control
T/C (dose: 64.0 mg/kg/injection, schedule: Q04DX002 (ip), vehicle: saline with Tween-80): 95 % of control
T/C (dose: 160.0 mg/kg/injection, schedule: Q04DX002 (ip), vehicle: saline with Tween-80): 95 % of control
T/C (dose: 400.0 mg/kg/injection, schedule: Q04DX002 (ip), vehicle: saline with Tween-80): 95 % of control

CN=C(Nc1ccccc1)SC
T/C [14]: 92 % of control
T/C [15]: 94 % of control
T/C (dose: 50.0 mg/kg/injection, schedule: Q01DX009 (ip), vehicle: saline): 105 % of control
T/C (dose: 50.0 mg/kg/injection, schedule: Q04DX003 (ip), vehicle: saline): 97 % of control
T/C [12]: 104 % of control
T/C (dose: 100.0 mg/kg/injection, schedule: Q01DX009 (ip), vehicle: saline): 105 % of control
T/C (dose: 100.0 mg/kg/injection, schedule: Q04DX003 (ip), vehicle: saline): 97 % of control

CCC(C)(C)c1cccc(C(=O)O)c1O
T/C [1]: 104 % of control
T/C [2]: 93 % of control

CC(C)(C)NCCCN1CC1(C)C (configuration not stated)
T/C (dose: 6.25 mg/kg/injection, schedule: Q01DX009 (ip), vehicle: saline): 90 % of control
T/C (dose: 6.25 mg/kg/injection, schedule: Q04DX003 (ip), vehicle: saline): 103 % of control
T/C (dose: 12.5 mg/kg/injection, schedule: Q01DX009 (ip), vehicle: saline): 93 % of control
T/C (dose: 12.5 mg/kg/injection, schedule: Q04DX003 (ip), vehicle: saline): 114 % of control
T/C [14]: 93 % of control and 121 % of control
T/C [15]: 117 % of control
T/C [12]: 110 % of control

CC(=O)Cc1cc(=O)[nH]c(=O)[nH]1
T/C [9]: 95 % of control
T/C [10]: 89 % of control

N#CSCCOCCSC#N
T/C (dose: 5.0 mg/kg/injection, schedule: Q01DX001 (ip), vehicle: saline): 108 % of control
T/C (dose: 10.0 mg/kg/injection, schedule: Q01DX001 (ip), vehicle: saline): 96 % of control

Cc1cc(C)c(O)c(C)c1C
T/C [9]: 104 % of control
T/C [11]: 95 % of control

N#CC(c1ccccc1)c1cccnc1 (configuration not stated)
T/C [1]: 94 % of control
T/C [2]: 92 % of control
T/C [3]: 89 % of control
